Results on 18 molecules are retold here after ChEMBL document CHEMBL1156336, “Synthesis, X-ray crystal structure study and antitumoral evaluations of 5,6-disubstituted pyrimidine derivatives” (Bioorg Med Chem, 2010).

Assay [1] has as its system MCF7. The assay is described as follows: Antitumor activity against human MCF7 cells after 72 hrs by MTT assay. The settings on record: MCF7, 72 h.
In assay [2] the test system is NCI-H460. The assay is described as follows: Antitumor activity against human H460 cells after 72 hrs by MTT assay. The settings on record: NCI-H460, 72 h.
For assay [3], the system named is MOLT-4. Kind of assay: Antitumor activity against human MOLT4 cells after 72 hrs by MTT assay. To be noted: MOLT-4, 72 h. For orientation: Tetrazolium assays rely on reduction of a dye to a coloured formazan, in cell work by metabolically active cells.
In assay [4] the test system is SW-620. Kind of assay: Antitumor activity against human SW620 cells after 72 hrs by MTT assay. The settings on record: SW-620, 72 h.
The subject of assay [5] is HCT-116. Kind of assay: Antitumor activity against human HCT116 cells after 72 hrs by MTT assay. To be noted: HCT-116, 72 h.
The test system of assay [6] is SW-620. Kind of assay: Selectivity ratio IC50 of 5-fluorouracil to compound for human SW620 cells. The format is functional.

By IC50 is commonly meant the point on the concentration scale where inhibition reaches its midpoint. A high value points to weaker potency.

Structures are written as SMILES. Some results are limits rather than exact numbers.

For the molecule `Cc1[nH]c(=O)[nH]c(=O)c1CCO`, the IC50 in assay [1], in assay [2], in assay [3], in assay [4] and in assay [5] was above 100 µM in each case.

`CC(=O)OCCc1c(C)nc(Cl)nc1Cl`: the IC50 in assay [1], in assay [2], in assay [3], in assay [4] and in assay [5] was above 100 µM throughout.

In the case of `COc1nc(C)c(CCO)c(OC)n1`, the IC50 in assay [1], in assay [2], in assay [3], in assay [4] and in assay [5] was above 100 µM in each case.

As for `CC(=O)OCCc1c(C)[nH]c(=O)[nH]c1=O`, the IC50 in assay [1], in assay [2], in assay [3], in assay [4] and in assay [5] was above 100 µM throughout.

Turning to `COc1nc(C)c2c(n1)OCC2`, the IC50 in assay [1], in assay [2], in assay [4] and in assay [5] was above 100 µM in each case.

As to `COc1nc(C)c(CCOC(C)=O)c(OC)n1`, the IC50 in assay [1] stood at 65 µM; in assay [2], 47 µM; in assay [4] it was 44 µM; in assay [5], 40 µM.

Regarding `COc1nc(Cl)nc(C)c1CCOC(C)=O`, the IC50 in assay [1], in assay [2], in assay [3], in assay [4] and in assay [5] was above 100 µM throughout.

For the molecule `COc1nc(Cl)nc(C)c1CCO`, the IC50 in assay [1], in assay [2], in assay [4] and in assay [5] was above 100 µM throughout.

In the case of `COc1ccc(C(OCCc2c(C)nc(OC)nc2OC)(c2ccccc2)c2ccccc2)cc1`, the IC50 in assay [1] was 6 µM; in assay [2], 50 µM; in assay [3], 5 µM; in assay [4], 20 µM; in assay [5], 4 µM.

Regarding `COc1nc(C)c(CCF)c(OC)n1`, the IC50 in assay [1], in assay [2], in assay [4] and in assay [5] was above 100 µM each time.

As for `COc1nc(Cl)nc(C)c1CCF`, the IC50 in assay [1], in assay [2], in assay [4] and in assay [5] was above 100 µM each time.

Consider `Cc1nc(Cl)nc(Cl)c1CCCl`, for which the “Ratio IC50” value in assay [6] is listed as 20. The IC50 was 8 µM in assay [1]; 3 µM in assay [2]; 5 µM in assay [3]; 0.4 µM in assay [4]; 2 µM in assay [5].

Consider `COc1nc(C)c(CCCl)c(OC)n1`, for which the IC50 in assay [1], in assay [2], in assay [3], in assay [4] and in assay [5] was above 100 µM in each case.

`COc1nc(CC(O)COCc2ccccc2)c(CCCl)c(OC)n1` (configuration not stated): the IC50 worked out at 26 µM in assay [1]; 76 µM in assay [2]; 19 µM in assay [3]; 20 µM in assay [4]; 16 µM in assay [5].

For `O=c1[nH]c(CC(O)COCc2ccccc2)c(CCCl)c(=O)[nH]1` (configuration not stated), the IC50 in assay [1], in assay [2], in assay [3], in assay [4] and in assay [5] was above 100 µM in each case.

As to `Cc1[nH]c(=O)[nH]c(=O)c1CCCl`, the IC50 in assay [1], in assay [2], in assay [3], in assay [4] and in assay [5] was above 100 µM throughout.

For `Nc1ccn([C@@H]2O[C@H](CO)[C@@H](O)[C@@H]2O)c(=O)n1` [CYTARABINE], the IC50 in assay [1] is at least 100 µM; in assay [2], 0.1 µM; in assay [3], 1 µM; in assay [4], 30 µM; in assay [5] it was 0.1 µM.

`O=c1[nH]cc(F)c(=O)[nH]1` [FLUOROURACIL] showed an IC50 in assay [3] of 0.03 µM. That is a double-digit nanomolar value.
